Experimental data reported in article PMC10988762, “Inhibition of malaria and babesiosis parasites by putative red blood cell targeting small molecules” (Frontiers in Cellular and Infection Microbiology, 2024).
pIC50: −log10 of the molar value. Read-outs that look alike come from different tables or passages of the source.

Assays:
[1] = in vitro; details: human
Source text: (§3) We analyzed samples using a volumetric MACSQuant Analyzer Flow Cytometer (Miltenyi Biotec), manually resuspending each row immediately prior to sample uptake. We recorded 10,000 total events for each condition at the instrument-defined low flow rate. We assessed all compounds in 2 separate experiments with blood from different donors. […] All samples were gated for single cell events.

[2] = test system: P. falciparum strain Dd2; experiment: Inhibitor susceptibility dose-response assay (SYBR-Green I), P. falciparum Dd2; type: cell-based, Plasmodium falciparum; details: Plasmodium falciparum, read-out: IC50 (S.D.), P. falciparum-Dd2
Experimental: (§1) The P. falciparum strains 3D7 and Dd2 were obtained from the Walter and Eliza Hall Institute (Melbourne, Australia) and the Malaria Research and Reference Reagent Resource, respectively. […] B. divergens parasites were maintained and assayed in mixed stages without synchronization.
(§2) Ring-stage P. falciparum (1%-parasitemia starting, 1%-hematocrit) and asynchronous B.divergens (0.5%-parasitemia starting, 3%-hematocrit) were incubated with plated compounds for 72h, and ring-stage P. knowlesi (1%-parasitemia starting, 1%-hematocrit) for 48h, before lysis and staining with dye. To quantify the species-specificity of the inhibitors, we divided the range of IC50s across the 4 test lines by the average IC50 across the same lines: inhibitors with increased scores show species-specific activity and reduced scores indicate broad-spectrum, pan-species activity.

[3] = test system: BdC9 line of B. divergens; experiment: Inhibitor susceptibility dose-response assay (SYBR-Green I), B. divergens; type: cell-based, Babesia divergens; details: for pIC50: Babesia divergens, read-out: IC50 (S.D.), B. divergens
Experimental: as §1, §2

[4] = test system: P. knowlesi YH1 strain; experiment: microbe, parasite or virus in culture; type: cell-based, Plasmodium knowlesi; details: Plasmodium knowlesi, 48 h, read-out: IC50 (S.D.), P. knowlesi
Experimental: as §1, §2

[5] = test system: human epithelial cells; parameters: method as in PMID 17145850; details: cellular proliferation ref PMID 17145850; read-out: Micromolar IC50 (human epithelial cells); cited from earlier work
[6] = test system: P. falciparum strain 3D7; experiment: Inhibitor susceptibility dose-response assay (SYBR-Green I), P. falciparum 3D7; type: cell-based, Plasmodium falciparum; details: Plasmodium falciparum, read-out: IC50 (S.D.), P. falciparum-3D7
Experimental: as §1, §2

[7] = test system: uninfected RBCs; experiment: Cellular phosphatidylserine exposure assay (annexin V flow cytometry);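 also: flow cytometry recording 10,000 events per condition, gated on single cells, with the two experiments using blood from separate donors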
Source text: as §3

[8] = test system: alloresponsive T cell proliferation; parameters: method as in PMID 24131367; details: ref PMID 24131367; read-out: Micromolar IC50 (alloresponsive T cell proliferation); cited from earlier work
[9] = molecular target: ELK1-luciferase assay, HeLa; details: read-out: Micromolar IC50 (ELK1-luciferase assay, HeLa); ref PMID 15225706; cited from earlier work
[10] = test system: HCT-116; details: read-out: Micromolar IC50 (anchorage formation, HCT-116); ref PMID 15225706; cited from earlier work
[11] = test system: P. falciparum (3D7); experiment: Assay for inhibition of parasite proliferation via RBC-targeting (transient exposure of RBCs, wash, then infection); type: cell-based, Plasmodium falciparum
Experimental: All plates were frozen for storage before assay. For assay, duplicate plates were preincubated with donor O+ RBCs at 2% hematocrit at 37°C in 50µL for 4-5 hours. Following preincubation, one but not the other plate in each pair was washed 4X in complete RPMI to dilute inhibitor. We transferred RBCs from both washed and unwashed plates to black, clear bottom 96-well plates (Corning Cat. No. 3904) and supplemented these suspensions with MACS-purified P. falciparum (3D7) schizonts for a starting parasitemia of 0.1% - 0.25% at 1% hematocrit. Following 72h incubation in standard culture conditions, samples were processed for SYBR-Green I signal ([Mandt et al., 2019]). […] To identify host-targeting compounds, we compared DMSO-treated to inhibitor-treated samples (Students t-test, paired). We carried out the assay with 1 µM mefloquine (Sigma-Aldrich Cat. No. M2319) as a control for reversible inhibition. All assays were conducted in biological triplicate, with each experiment utilizing different donor RBCs. For select compounds, we carried out this same assay in a dose-response series (n=3 experiments). Following normalization to DMSO-controls, we assessed inhibitor activity following transient exposure of RBCs by Two-Way ANOVA tests for repeated measures (Graphpad Prism v9): high P values indicate support for the null hypothesis that dose-dependent inhibition is not modulated by dilution after exposure, consistent with a direct inhibitory effect of the compounds on RBCs persisting after transient exposure.

[12] = test system: sickle RBCs; parameters: method as in PMID 33208899; details: RBC assay: PS exposure in sickle RBCs ref PMID 33208899; read-out: Micromolar IC50 (RBC), PS exposure in sickle RBCs; cited from earlier work
[13] = test system: uninfected RBCs; details: 5x P. falciparum 3D7-IC50; 24, 48, 72h
Source text: as §3

[14] = uninfected RBCs (red blood cells), 1% hematocrit
[15] = 5x P. falciparum 3D7-IC50, % of RBCs, mean of 2 experiments
[16] = 48h, 5x P. falciparum 3D7-IC50, % of RBCs, mean of 2 experiments
[17] = 72h, 5x P. falciparum 3D7-IC50, % of RBCs, mean of 2 experiments

Compound	hemolysis at 24 h, 5 x P. falciparum 3D7-IC50 [1, 14] [%]	hemolysis at 48 h, 5 x P. falciparum 3D7-IC50 [1, 14] [%]	hemolysis at 72 h, 5 x P. falciparum 3D7-IC50 [1, 14] [%]	pIC50 ([2]; DD2, 72 h)	pIC50 ([3]; 72 h)	pIC50 [4]	pIC50 ([6]; 3D7, 72 h)	Phosphatidylserine exposure (%) 24h [7, 15] [%]	Phosphatidylserine exposure (%) 48h [7, 16] [%]	Phosphatidylserine exposure (%) 72h [7, 17] [%]	also measured
CN(C)CCOc1ccc(-c2nc(-c3ccncc3)c(-c3ccc4c(c3)CC/C4=N\O)[nH]2)cc1 [SB590885]	-4	4	11	6.00	5.40	5.85	6.15	2	2	4	pIC50 [5]: 5.21 to 5.96
CN1CCN(c2nc(C3=C(c4c[nH]c5ccccc45)C(=O)NC3=O)c3ccccc3n2)CC1 [Sotrastaurin]	-7	9	17			5.30		2	2	4	pIC50 ([2]; DD2, 72h, ring-stage, n=3 experiments (or 2 where indicated with *)): 5.52; pIC50 ([3]; 72h, asynchronous, n=3 experiments (or 2 where indicated with *)): 5.00; pIC50 [8]: 7.05; pIC50 ([6]; 3D7, 72h, ring-stage, n=3 experiments (or 2 where indicated with *)): 5.30
N#CC(=C(N)Sc1ccccc1N)C(C#N)=C(N)Sc1ccccc1N [U0126]				5.41	4.52	4.70	5.28	2			hemolysis at 24 h, 5 x P. falciparum 3D7-IC50 [1]: 3%; hemolysis at 48 h, 5 x P. falciparum 3D7-IC50 [1]: 9%; hemolysis at 72 h, 5 x P. falciparum 3D7-IC50 [1]: 20%; pIC50 [9]: 6.53; pIC50 [10]: 4.71; Phosphatidylserine exposure (%) 48h [7]: 4%; Phosphatidylserine exposure (%) 72h [7]: 9%
Clc1cccc(Cl)c1CSc1nnc(-c2cnccn2)s1 [Yoda1]	7	38	57	5.22	5.95	5.15	5.38		100.	100.	fold lower IC50s against B. divergens than the Plasmodium spp. ([3]; B. divergens vs Plasmodium spp.): at least 3 fold; antimalarial activity retained after transient exposure of RBCs, relative to continuous exposure to inhibitor ([11]; 5x P. falciparum 3D7-IC50, RBC preincubation 4-5 hours then washed, 100% = inhibition with continuous exposure, P<0.01): ≥ 80%; inhibitory activity following transient exposure of RBCs, in words ([11]; transient vs continued exposure, dose-response format where stated, n=3): statistically indistinguishable from inhibition with continued exposure; pIC50 [12]: ~5.70; hemolysis of RBCs, in words [13]: rapid onset of hemolysis comparable to control compound A23187
